Experimental data published in patent US8163929B2, “Dihydropyridone amides as P2X7 modulators” (Roche Palo Alto LLC, priority 2008, dated 2012).

Target: T1, P2X7 (UniProt Q99572)
T1 sequence (Q99572 1-595): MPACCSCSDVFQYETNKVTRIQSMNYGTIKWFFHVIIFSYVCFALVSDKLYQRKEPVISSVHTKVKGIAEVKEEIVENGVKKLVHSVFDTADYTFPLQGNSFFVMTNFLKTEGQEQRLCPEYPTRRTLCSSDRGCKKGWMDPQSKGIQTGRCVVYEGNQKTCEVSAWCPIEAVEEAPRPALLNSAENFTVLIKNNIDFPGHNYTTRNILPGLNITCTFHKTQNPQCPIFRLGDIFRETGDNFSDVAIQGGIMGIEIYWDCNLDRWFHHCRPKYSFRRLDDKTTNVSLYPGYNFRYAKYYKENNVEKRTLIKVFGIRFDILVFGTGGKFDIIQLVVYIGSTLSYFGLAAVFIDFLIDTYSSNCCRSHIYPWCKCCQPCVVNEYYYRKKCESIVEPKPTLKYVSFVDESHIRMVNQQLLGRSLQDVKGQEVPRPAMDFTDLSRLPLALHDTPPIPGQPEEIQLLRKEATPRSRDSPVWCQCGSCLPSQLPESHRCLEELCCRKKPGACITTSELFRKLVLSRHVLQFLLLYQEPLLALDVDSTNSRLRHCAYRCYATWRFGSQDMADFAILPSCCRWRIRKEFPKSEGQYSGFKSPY
Test: P2X7 activity of Table 1
Assay type: cell-based
Conditions: pIC50 values for P2X7
Summary of the method: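 FLIPR calcium flux with fluo-3 in 1321N1 cells expressing human P2X7 and HEK293 cells expressing rat P2X7, in HBSS with 2 mM CaCl2 and 2.5 mM probenecid. Antagonist pre-incubated 20 min at room temperature, then BzATP added (100 μM human, 5 μM rat). Peak response over 5 min normalised to 5 μM ionomycin.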

Row | SMILES | pIC50
1 | Cc1ccc(-c2cc(C)n(CC(=O)NCCN(C)C)n2)cc1NC(=O)C1=CNC(=O)C[C@H]1c1ccc(F)cc1 [Compound 119, (S)-4-(4-Fluoro-phenyl)-6-oxo-1,4,5,6-tetrahydro-pyridine-3-carboxylic acid (5-{1-[(2-dimethylamino-ethylcarbamoyl)-methyl]-5-methyl-1H-pyrazol-3-yl}-2-methyl-phenyl)-amide] | 7.685
2 | Cc1ccc(-c2cccn(C)c2=O)cc1NC(=O)C1=CN(C)C(=O)C[C@H]1c1ccc(F)cc1 [Compound 120, (S)-4-(4-Fluoro-phenyl)-1-methyl-6-oxo-1,4,5,6-tetrahydro-pyridine-3-carboxylic acid [2-methyl-5-(1-methyl-2-oxo-1,2-dihydro-pyridin-3-yl)-phenyl]-amide] | 7.855
3 | Cc1ccc(-c2ccc(=O)n(CCO)n2)cc1NC(=O)C1=CNC(=O)C[C@H]1c1ccc(F)cc1 [Compound 121, (S)-4-(4-Fluoro-phenyl)-6-oxo-1,4,5,6-tetrahydro-pyridine-3-carboxylic acid {5-[1-(2-hydroxy-ethyl)-6-oxo-1,6-dihydro-pyridazin-3-yl]-2-methyl-phenyl}-amide] | 7.385
4 | Cc1ccc(=O)n(-c2ccc(C)c(NC(=O)C3=CNC(=O)C[C@H]3c3ccc(F)cc3)c2)c1 [Compound 122, (S)-4-(4-Fluoro-phenyl)-6-oxo-1,4,5,6-tetrahydro-pyridine-3-carboxylic acid [2-methyl-5-(5-methyl-2-oxo-2H-pyridin-1-yl)-phenyl]-amide] | 8.26
5 | CN1C=C(C(=O)Nc2cc(-c3ccn[nH]c3=O)ccc2F)[C@H](c2ccc(F)cc2)CC1=O [Compound 123, (S)-4-(4-Fluoro-phenyl)-1-methyl-6-oxo-1,4,5,6-tetrahydro-pyridine-3-carboxylic acid [2-fluoro-5-(3-oxo-2,3-dihydro-pyridazin-4-yl)-phenyl]-amide] | 7.58
6 | Cc1ccc(-n2ccc(=O)[nH]c2=O)cc1NC(=O)C1=CN(C)C(=O)C[C@H]1c1ccc(F)cc1 [Compound 124, (S)-4-(4-Fluoro-phenyl)-1-methyl-6-oxo-1,4,5,6-tetrahydro-pyridine-3-carboxylic acid [5-(2,4-dioxo-3,4-dihydro-2H-pyrimidin-1-yl)-2-methyl-phenyl]-amide] | 6.44
7 | Cc1cc(Cl)c(-n2ncccc2=O)cc1NC(=O)C1=CNC(=O)C[C@H]1c1ccc(F)cc1 [Compound 125, (S)-4-(4-Fluoro-phenyl)-6-oxo-1,4,5,6-tetrahydro-pyridine-3-carboxylic acid [4-chloro-2-methyl-5-(6-oxo-6H-pyridazin-1-yl)-phenyl]-amide] | 7.606
8 | COC[C@H](O)Cn1nc(-c2ccc(C)c(NC(=O)C3=CN(C)C(=O)C[C@H]3c3ccc(F)cc3)c2)ccc1=O [Compound 126, (S)-4-(4-Fluoro-phenyl)-1-methyl-6-oxo-1,4,5,6-tetrahydro-pyridine-3-carboxylic acid {5-[1-((R)-2-hydroxy-3-methoxy-propyl)-6-oxo-1,6-dihydro-pyridazin-3-yl]-2-methyl-phenyl}-amide] | 7.615
9 | Cc1cc(Cl)c(-c2ccnn(C)c2=O)cc1NC(=O)C1=CNC(=O)C[C@H]1c1ccc(F)cc1 [Compound 127, (S)-4-(4-Fluoro-phenyl)-6-oxo-1,4,5,6-tetrahydro-pyridine-3-carboxylic acid [4-chloro-2-methyl-5-(2-methyl-3-oxo-2,3-dihydro-pyridazin-4-yl)-phenyl]-amide] | 7.843
10 | Cc1ccc(-c2ccnn(C)c2=O)cc1NC(=O)C1=CN(CC(=O)N(C)C)C(=O)C[C@H]1c1ccc(F)cc1 [Compound 128, (S)-1-Dimethylcarbamoylmethyl-4-(4-fluoro-phenyl)-6-oxo-1,4,5,6-tetrahydro-pyridine-3-carboxylic acid [2-methyl-5-(2-methyl-3-oxo-2,3-dihydro-pyridazin-4-yl)-phenyl]-amide] | 7.195
11 | Cc1ccc(-n2cc(C)c(=O)[nH]c2=O)cc1NC(=O)C1=CN(C)C(=O)C[C@H]1c1ccc(F)cc1 [Compound 129, (S)-4-(4-Fluoro-phenyl)-1-methyl-6-oxo-1,4,5,6-tetrahydro-pyridine-3-carboxylic acid [2-methyl-5-(5-methyl-2,4-dioxo-3,4-dihydro-2H-pyrimidin-1-yl)-phenyl]-amide] | 7.945
12 | Cc1cc(F)c(-c2ccnn(C)c2=O)cc1NC(=O)C1=CN(C)C(=O)C[C@H]1c1ccc(F)cc1 [Compound 130, (S)-4-(4-Fluoro-phenyl)-1-methyl-6-oxo-1,4,5,6-tetrahydro-pyridine-3-carboxylic acid [4-fluoro-2-methyl-5-(2-methyl-3-oxo-2,3-dihydro-pyridazin-4-yl)-phenyl]-amide] | 7.864
13 | CCn1c(=O)cnn(-c2ccc(C)c(NC(=O)C3=CN(C)C(=O)C[C@H]3c3ccc(F)cc3)c2)c1=O [Compound 131, (S)-4-(4-Fluoro-phenyl)-1-methyl-6-oxo-1,4,5,6-tetrahydro-pyridine-3-carboxylic acid [5-(4-ethyl-3,5-dioxo-4,5-dihydro-3H-[1,2,4]triazin-2-yl)-2-methyl-phenyl]-amide] | 7.42
14 | Cc1ccc(-n2ccc(=O)n(C)c2=O)cc1NC(=O)C1=CN(C)C(=O)C[C@H]1c1ccc(F)cc1 [Compound 132, (S)-4-(4-Fluoro-phenyl)-1-methyl-6-oxo-1,4,5,6-tetrahydro-pyridine-3-carboxylic acid [2-methyl-5-(3-methyl-2,4-dioxo-3,4-dihydro-2H-pyrimidin-1-yl)-phenyl]-amide] | 6.015
15 | Cc1ccc(-n2ccc(=O)n(C)c2=O)cc1NC(=O)C1=CNC(=O)C[C@H]1c1ccc(F)cc1 [Compound 133, (S)-4-(4-Fluoro-phenyl)-6-oxo-1,4,5,6-tetrahydro-pyridine-3-carboxylic acid [2-methyl-5-(3-methyl-2,4-dioxo-3,4-dihydro-2H-pyrimidin-1-yl)-phenyl]-amide] | 7.24
16 | Cc1ccc(-c2ccc(=O)n(CCO)n2)cc1NC(=O)C1=CN(C)C(=O)C[C@H]1c1ccc(F)cc1 [Compound 134, (S)-4-(4-Fluoro-phenyl)-1-methyl-6-oxo-1,4,5,6-tetrahydro-pyridine-3-carboxylic acid {5-[1-(2-hydroxy-ethyl)-6-oxo-1,6-dihydro-pyridazin-3-yl]-2-methyl-phenyl}-amide] | 6.42
17 | Cc1cnn(-c2ccc(C)c(NC(=O)C3=CNC(=O)C[C@H]3c3ccc(F)cc3)c2)c(=O)c1 [Compound 135, (S)-4-(4-Fluoro-phenyl)-6-oxo-1,4,5,6-tetrahydro-pyridine-3-carboxylic acid [2-methyl-5-(4-methyl-6-oxo-6H-pyridazin-1-yl)-phenyl]-amide] | 7.655
18 | Cc1cnn(-c2ccc(C)c(NC(=O)C3=CN(C)C(=O)C[C@H]3c3ccc(F)cc3)c2)c(=O)c1 [Compound 136, (S)-4-(4-Fluoro-phenyl)-1-methyl-6-oxo-1,4,5,6-tetrahydro-pyridine-3-carboxylic acid [2-methyl-5-(4-methyl-6-oxo-6H-pyridazin-1-yl)-phenyl]-amide] | 7.515
19 | Cc1cc(-c2ccc(F)c(NC(=O)C3=CN(C)C(=O)C[C@H]3c3ccc(F)cc3)c2)n[nH]1 [Compound 137, (S)-4-(4-Fluoro-phenyl)-1-methyl-6-oxo-1,4,5,6-tetrahydro-pyridine-3-carboxylic acid [2-fluoro-5-(5-methyl-1H-pyrazin-3-yl)-phenyl]-amide] | 6.39
